The data set can be described thus: Antioxidant activity assessed as inhibition of linoleic acid oxidation at 90 ug/ml measured over 60 mins by beta-carotene bleaching test. Type of data set: physicochemical. The settings on record: 1 h.

For the compound `COc1ccc([C@@H]2COc3cc(O)ccc3C2)c(O)c1`, the “inhibition (INH)” value was found to be 39.5%.

These data come from ChEMBL document CHEMBL3763090, “A pharmacological perspective on the use of Brazilian Red Propolis and its isolated compounds against human diseases” (Eur J Med Chem, 2016).
